The IC50 is the concentration that inhibits the measured activity by half. Usually melting point stands for the temperature, or range, at which the solid turns liquid.

This note sets out measurements from patent publication US7414066B2, “Amide compounds and medications containing the same technical field” (Kowa Company Ltd., priority 1999, dated 2008).

Data set [1] concerns the target T1, ACAT (enzyme solution derived from the small intestine of a rabbit).
T1 construct: An enzyme solution derived from the small intestine was prepared from the small intestine of a rabbit that had eaten a normal food
The data set can be described thus: ACAT inhibitory activity, enzyme solution from rabbit small intestine. In kind it is biochemical. The following applies: B‡: the small intestine. As for the experimental part:
(§1) A microsome was prepared from the breast aorta of a rabbit which had been fed with 1% cholesterol food for 8 weeks in a usual manner, and suspended in a 0.15 M phosphate buffer solution (pH 7.4) to form an enzyme solution. An enzyme solution derived from the small intestine was prepared from the small intestine of a rabbit that had eaten a normal food.
(§2) To this solution were added 10 μl of the enzyme solution, and the mixture was reacted at 37° C. for 5 minutes (for 3 minutes in the case of the small intestine). Then, 3 ml of a chloroform/methanol (2/1) mixture and 0.5 ml of 0.04 N hydrochloric acid were added thereto to stop the reaction. The lipid was then extracted. The solvent layer was concentrated to dryness, and dissolved in hexane. The solution was spotted on a TLC plate(supplied by Merck Co.). The elution was conducted with a hexane:ether:acetic acid (75:25:1) mixture.
(§3) The radioactivity of the resulting cholesterol ester fraction was measured using BAS 2000 (supplied by Fuji Photo Film Co., Ltd.). An IC50 value was obtained from the calculation in contrast with a control containing only DMSO.

A further data set concerns J774 cells. Description: ACAT inhibitory activity (anti-foamation activity) in J774 cells. The data set is classed as cell-based. The following applies: for IC50: Mus musculus, J774 cells, 25-OH cholesterol 10 μg/ml, 18 hours, read-out: Enzyme (J774) IC50; for IC50 (HepG2)/IC50 (J774): ratio HepG2 / J774. On the procedure:
(§4) J774 cells or HepG2 cells were spread on a 24-well plate. The cells were incubated in a 5% CO2 incubator at 37° C. for 24 hours using DMEM in the case of the J774 cells and a MEM culture solution in the case of the HepG2 cells (both containing 10% fetal calf serum).
(§5) The medium was removed, and the residue was washed twice with PBS, then extracted with 1.5 ml of a hexane:isopropanol (3:2) mixture, and concentrated to dryness. The extract was dissolved in 0.2 ml of isopropanol containing 10% Triton X-100. Total cholesterol (TC) and free cholesterol (FC) were measured using Cholesterol E Test Wako (supplied by Wako Pure Chemical Industries, Ltd.) and Free Cholesterol E Test Wako (supplied by Wako Pure Chemical Industries, Ltd.).
(§6) The cell extract residue was solubilized in 0.25 ml of 2N NaOH at 37° C. for 30 minutes, and the protein amount was measured using BCA Protein Assay Reagent (Pierce).
(§7) The amount of cholesterol based on the protein was calculated from the difference between TC and FC, and an IC50 value was obtained from the calculation in contrast with the control.

A further data set deals with HepG2 cells. The data set can be described thus: ACAT inhibitory activity (anti-foamation activity) in HepG2 cells. In kind it is cell-based. The settings on record: Homo sapiens, 25-OH cholesterol 10 μg/ml, 18 hours, read-out: Enzyme (HepG2) IC50. As for the experimental part:
as §4, §5, §6, §7

Data set [2] addresses ACAT (microsome from the breast aorta of a rabbit) (Oryctolagus cuniculus, UniProt G1SUQ0). The data set can be described thus: ACAT inhibitory activity, microsome from rabbit breast aorta (blood vessel wall enzyme). The data set is classed as biochemical. The settings on record: microsome from breast aorta of cholesterol-fed rabbit. As for the experimental part:
as §1, §2, §3

Sequence of ACAT (microsome from the breast aorta of a rabbit) (G1SUQ0 entry or part of it): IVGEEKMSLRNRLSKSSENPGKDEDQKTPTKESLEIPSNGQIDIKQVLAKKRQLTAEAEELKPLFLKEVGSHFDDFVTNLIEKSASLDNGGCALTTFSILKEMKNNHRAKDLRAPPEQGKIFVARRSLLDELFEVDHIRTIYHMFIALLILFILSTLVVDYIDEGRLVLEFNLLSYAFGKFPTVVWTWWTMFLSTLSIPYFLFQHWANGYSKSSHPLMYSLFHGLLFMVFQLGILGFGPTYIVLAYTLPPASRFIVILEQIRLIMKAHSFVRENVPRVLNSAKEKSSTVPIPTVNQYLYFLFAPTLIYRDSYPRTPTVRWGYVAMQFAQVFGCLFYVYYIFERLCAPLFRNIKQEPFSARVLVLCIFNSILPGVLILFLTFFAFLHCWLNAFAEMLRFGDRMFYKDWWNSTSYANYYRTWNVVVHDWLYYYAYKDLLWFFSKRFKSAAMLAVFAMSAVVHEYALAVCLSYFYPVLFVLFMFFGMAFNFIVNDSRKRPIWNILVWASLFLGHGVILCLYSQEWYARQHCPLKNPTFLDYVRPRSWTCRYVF

Turning to `CC(C)c1cccc(C(C)C)c1NC(=O)CCCCCSc1nc2ccccc2o1` [Control 5, 6-(benzoxazol-2-ylthio)-N-(2,6-diisopropylphenyl)hexanamide, reference compound], the values for the IC50 (in data set [1]; with J774 cells) were 65 nM and 1900 nM, respectively.

`CCCCCCCN(CCCCCSc1nc(-c2ccccc2)c(-c2ccccc2)[nH]1)c1nc2ccccc2o1` [Control 4, [5-(4,5-diphenyl-1H-imidazol-2-ylthio)pentyl]-N-heptyl-2-benzoxazolamie, reference compound]: the IC50 came out at 37 nM in data set [1] and 120 nM with J774 cells.

As for `CC(C)c1cccc(C(C)C)c1NC(=O)C(C)(C)CCCOc1ccc2c(c1)C=C(c1nccn1C)C(CCc1ccc(F)cc1)O2` (centres unmarked) [Control 1, 5-[2-(2-(4-fluorophenyl)ethyl)-3-(1-methyl-1H-imidazol-2-yl)-2H-1-benzopyran-6-yl]oxy-2,2-dimethyl-N-(2,6-diisopropylphenyl)pentanamide, reference compound], the values for the IC50 (in data set [1]; in the data set with J774 cells) were 870 nM and 560 nM, respectively.

Molecule `Cc1cc(SC(C)C)c(NC(=O)CCCCCCCCSc2nc3cccc(C(F)(F)F)c3o2)c(SC(C)C)n1` [Compound No. 1294, 9-(7-trifluoromethylbenzoxazol-2-ylthio)-N-[2,4-bis(isopropylthio)-6-methyl-3-pyridyl]nonanamide] displayed a melting point of 97 to 98 °C. Also, in the data set on J774 cells, the IC50 worked out at 4.2 nM and the “IC50 (HepG2)/IC50 (J774)” value is given as 0.6. Also, the IC50 in the data set with HepG2 cells was found to be 2.4 nM.

As for `Cc1cc(SC(C)C)c(NC(=O)CCCCCCCCSc2nc3ccccc3[nH]2)c(SC(C)C)n1` [Compound No. 868, 9-(benzimidazol-2-ylthio)-N-[2,4-bis(isopropylthio)-6-methyl-3-pyridyl]nonanamide], the melting point was in the range of 112 to 114 °C.

On to `Cc1cc(SC(C)C)c(NC(=O)CCCCCCSc2nc3cccc(C(F)(F)F)c3o2)c(SC(C)C)n1` [Compound No. 1292, 7-(7-trifluoromethylbenzoxazol-2-ylthio)-N-[2,4-bis(isopropylthio)-6-methyl-3-pyridyl]heptanamide], for which the melting point was in the range of 76 to 78 °C. Moreover, in the data set with J774 cells, the IC50 was 2.7 nM and the “IC50 (HepG2)/IC50 (J774)” value worked out at 11.1. Besides, the IC50 in the data set with HepG2 cells was 30 nM.

As to `CSc1cc(C)nc(SC)c1NC(=O)CCCCCCCCSc1nc2ccccc2s1` [compound 798, 9-(benzothiazol-2-ylthio)-N-[2,4-bis(methylthio)-6-methyl-3-pyridyl]nonanamide], the melting point was in the range of 126 to 127 °C.

`CCSc1cc(C)nc(SCC)c1NC(=O)CSc1nc2ccccc2o1` [compound 811, 2-(benzoxazol-2-ylthio)-N-[2,4-bis(ethylthio)-6-methyl-3-pyridyl]acetamide] registered a melting point of 143 to 145 °C.

Molecule `Cc1cc(SC(C)C)c(NC(=O)CCCCCCSc2nc3ccccc3[nH]2)c(SC(C)C)n1` [Compound No. 866, 7-(benzoimidazol-2-ylthio)-N-[2,4-bis(isopropylthio)-6-methyl-3-pyridyl]heptanamide] displayed a melting point of 118 to 121 °C.

Consider `CSc1cc(C)nc(SC)c1NC(=O)CCCCCCCCSc1nc2ccccc2o1` [compound 788, 9-(benzoxazol-2-ylthio)-N-[2,4-bis(methylthio)-6-methyl-3-pyridyl]nonanamide], for which the melting point lay within 123 to 124 °C.

As to `CCCCCCCCCN(CC(C)(C)C)C(=O)N[C@H]1CCCC[C@@H]1OC(=O)CCNC(=O)C1OC(C)(C)OCC1(C)C` (stereo partly drawn) [Control 3, N-(2,2,5,5-tetramethyl-1,3-dioxan-4-ylcarbonyl)-β-alanine 2 (S)-[N′-(2,2-dimethylpropyl)-N′-nonylureido]-1(S)-cyclohexyl ester], the IC50 in data set [2] worked out at 34 nM; in data set [1] it was 56 nM; with J774 cells it was 320 nM.

`Cc1cc(SC(C)C)c(NC(=O)CCCCSc2nc3c(C)c(Cl)cc(C(C)C)c3o2)c(SC(C)C)n1` [Compound No. 1300, 5-(5-chloro-7-isopropyl-4-methylbenzoxazol-2-ylthio)-N-[2,4-bis(isopropylthio)-6-methyl-3-pyridyl]pentanamide] gave a melting point of 143 to 145 °C.

As to `CCSc1cc(C)nc(SCC)c1NC(=O)CSc1nc2ccccc2s1` [compound 821, 2-(benzothiazol-2-ylthio)-N-[2,4-bis(ethylthio)-6-methyl-3-pyridyl]acetamide], the melting point lay within 119 to 120 °C.

`CSc1ncccc1NC(=O)CCCCCSc1nc2ccccc2s1` [compound 15, 6-(benzothiazol-2-ylthio)-N-(2-methylthio-3-pyridyl)hexanamide]: the melting point was 118 to 119 °C.

Turning to `COC(=O)c1cccc2nc(SCCCCCC(=O)Nc3c(SC)cc(C)nc3SC)oc12` [Compound No. 1238, 6-(7-methoxycarbonylbenzoxazol-2-ylthio)-N-[2,4-bis(methylthio)-6-methyl-3-pyridyl]hexanamide], the melting point was 141 to 142 °C.

Molecule `CSc1cc(C)nc(SC)c1NC(=O)CSc1nc2ccccc2s1` [Compound No. 791, 2-(benzothiazol-2-ylthio)-N-[2,4-bis(methylthio)-6-methyl-3-pyridyl)acetamide] showed a melting point of 178 to 179 °C.

`CCSc1cc(C)nc(SCC)c1NC(=O)CSc1nc2ccccc2[nH]1` [compound 831, 2-(benzimidazol-2-ylthio)-N-[2,4-bis(ethylthio)-6-methyl-3-pyridyl]acetamide] had a melting point of 182 to 183 °C.

The molecule `CSc1cc(C)nc(SC)c1NC(=O)CCCCSc1nc2ccccc2o1` [Compound No. 784, 5-(benzoxazol-2-ylthio)-N-(2,4-bis(methylthio)-6-methyl-3-pyridyl)pentanamide] came in with a melting point of 147 to 150 °C.

The molecule `CSc1cc(C)nc(SC)c1NC(=O)CCCCCSc1nc2ccccc2o1` [compound 785, 6-(benzoxazol-2-ylthio)-N-[2,4-bis(methylthio)-6-methyl-3-pyridyl]hexanamide] had a melting point of 120 to 121 °C.

As to `CCSc1cc(C)nc(SCC)c1NC(=O)CCCSc1nc2ccccc2[nH]1` [Compound No. 833, 4-(benzimidazol-2-ylthio)-N-[2,4-bis(ethylthio)-6-methyl-3-pyridyl]butanamide], the melting point lay in the range of 160 to 161 °C.

As to `CCSc1cc(C)nc(SCC)c1NC(=O)CCCCSc1nc2cccc(C(F)(F)F)c2o1` [Compound No. 1270, 5-(7-trifluoromethylbenzoxazol-2-ylthio)-N-[2,4-bis(ethylthio)-6-methyl-3-pyridyl]pentanamide], the melting point was in the range of 155 to 156 °C.
